In US10774051B2, “6-membered heterocyclic derivatives and pharmaceutical composition comprising the same” (Shionogi & Co., Ltd., priority 2015, dated 2020):

What follows are compounds tested against human P2X7 receptor (Homo sapiens, UniProt Q99572, R270H/Y155H) (assay: Evaluation of human P2X7 receptor inhibitory activity (Yo-Pro uptake, BzATP stimulation, FLIPR TETRA)). Conditions: 1321N1 cells stably expressing human P2X7 receptor; BzATP stimulation, Yo-Pro uptake; read-out: IC50 (antagonistic activity for the human P2X7 receptor).
Type: cell-based
Method in brief: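 1321N1 cells stably expressing human P2X7 (T606C/G952A SNP variant), in HBSS buffer pH 7.4-7.5 with Yo-Pro, stimulated with BzATP; compound added 8 min after agonist. Fluorescence followed for 20 min on FLIPR; max-minus-min change gave % inhibition, IC50 by logistic fit.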
For `COc1cn(Cc2cccc(Cl)c2)c(Nc2cccc3[nH]c(C)cc23)nc1=O` [Compound I-0487], the IC50 was 25 nM. With `COc1cn(Cc2ccc(F)c(C)c2)c(Nc2cccc(Cl)c2C)nc1=O` [Compound I-0520] the IC50 was 9 nM. `COc1cn(Cc2cc(F)cc(F)c2)c(Nc2cccc(SC)c2C)nc1=O` [Compound I-0550] was tested, and the IC50 was 2 nM. In the case of `COc1cn(Cc2ccc(F)cc2)c(Nc2cc3sc(C)nc3cc2C)nc1=O` [Compound I-0561], the IC50 is reported as 19 nM.

Same assay, conditions: 1321N1 cells stably expressing human P2X7 receptor; BzATP stimulation, Yo-Pro uptake; read-out: IC50 (antagonistic activity for the human P2X7 receptor), class symbol
`COc1cn(Cc2ccc(F)c(F)c2)c(Nc2cccc3[nH]c(C)cc23)nc1=O` [Compound I-0488] gave an IC50 of 10 to 100 nM. For `COc1cn(Cc2ccc(F)c(Cl)c2)c(Nc2cccc3[nH]c(C)cc23)nc1=O` [Compound I-0489], the IC50 was under 10 nM. `COc1cn(Cc2cccc(Cl)c2)c(Nc2cc3[nH]ncc3cc2C)nc1=O` [Compound I-0490] was tested, and the IC50 was under 10 nM. `COc1cn(Cc2ccc(F)c(F)c2)c(Nc2cc3[nH]ncc3cc2C)nc1=O` [Compound I-0491] gave an IC50 of under 10 nM. `COc1cn(Cc2ccc(F)c(Cl)c2)c(Nc2cc3[nH]ncc3cc2C)nc1=O` [Compound I-0492] showed an IC50 of under 10 nM. With `COc1cn(Cc2ccccc2)c(Nc2cc(OCC(F)(F)F)ccc2C)nc1=O` [Compound I-0493] the IC50 was 10 to 100 nM. For `COc1cn(Cc2cccc(Cl)c2)c(Nc2cc(OCC(F)(F)F)ccc2C)nc1=O` [Compound I-0494], the IC50 was 10 to 100 nM. For `COc1cn(Cc2ccc(F)c(F)c2)c(Nc2cc(OCC(F)(F)F)ccc2C)nc1=O` [Compound I-0495], the IC50 was 10 to 100 nM. `COc1cn(Cc2cc(F)cc(F)c2)c(Nc2cc(OCC(F)(F)F)ccc2C)nc1=O` [Compound I-0496] showed an IC50 of 10 to 100 nM. `COc1cn(Cc2ccc(F)c(Cl)c2)c(Nc2cc(OCC(F)(F)F)ccc2C)nc1=O` [Compound I-0497] was tested, and the IC50 was 10 to 100 nM. Compound `COc1ccc(Nc2nc(=O)c(OC)cn2Cc2ccccc2)c(C)c1C` [Compound I-0499] has an IC50 of 10 to 100 nM. `COc1cn(Cc2ccccc2)c(Nc2cc(C(C)(C)C)ccc2C)nc1=O` [Compound I-0500] showed an IC50 of 10 to 100 nM. `COc1cn(Cc2ccc(F)c(Cl)c2)c(Nc2cc(C(C)(C)C)ccc2C)nc1=O` [Compound I-0501] showed an IC50 of 10 to 100 nM. In the case of `COc1cn(Cc2ccc(F)c(Cl)c2)c(Nc2cc(C)cc(C)c2C)nc1=O` [Compound I-0502], the IC50 is reported as 10 to 100 nM. In the case of `COc1cn(Cc2ccc(F)c(F)c2)c(Nc2cc(C)c(F)cc2C)nc1=O` [Compound I-0503], the IC50 is reported as under 10 nM. `COc1cn(Cc2cc(F)cc(F)c2)c(Nc2cccc(OC(F)F)c2C)nc1=O` [Compound I-0504] was tested, and the IC50 was under 10 nM. In the case of `COc1cn(Cc2cc(F)cc(F)c2)c(Nc2cccc(C)c2Cl)nc1=O` [Compound I-0505], the IC50 is reported as 10 to 100 nM. Work on `COc1cn(Cc2cccc(Cl)c2)c(Nc2cc(C)c(F)cc2C)nc1=O` [Compound I-0506] yielded an IC50 of under 10 nM. Compound `COc1cn(Cc2ccc(F)c(Cl)c2)c(Nc2cc(C)c(F)cc2C)nc1=O` [Compound I-0507] has an IC50 of under 10 nM. For `COc1cn(Cc2cc(F)cc(Cl)c2)c(Nc2cc(C)c(F)cc2C)nc1=O` [Compound I-0508], the IC50 was 10 to 100 nM. In the case of `COc1cccc(Nc2nc(=O)c(OC)cn2Cc2cc(F)cc(Cl)c2)c1C` [Compound I-0509], the IC50 is reported as under 10 nM. With `COc1cc(Nc2nc(=O)c(OC)cn2Cc2cc(F)cc(F)c2)c(C)cc1Cl` [Compound I-0510] the IC50 was under 10 nM. `COc1cn(Cc2ccc(F)c(Cl)c2)c(Nc2cccc(OC(F)F)c2C)nc1=O` [Compound I-0511] was tested, and the IC50 was under 10 nM. For `COc1cn(Cc2ccccc2)c(Nc2cc(SC(F)(F)F)ccc2C)nc1=O` [Compound I-0512], the IC50 was 100 to 500 nM. `COc1cn(Cc2ccccc2)c(Nc2cc(S(C)(=O)=O)ccc2C)nc1=O` [Compound I-0513] gave an IC50 of 100 to 500 nM. With `COc1cn(Cc2cc(F)cc(F)c2)c(Nc2cccc(OC(C)C)c2C)nc1=O` [Compound I-0514] the IC50 was 10 to 100 nM. For `COc1cn(Cc2ccc(F)c(Cl)c2)c(Nc2cccc(OC(C)C)c2C)nc1=O` [Compound I-0515], the IC50 was 10 to 100 nM. `COc1cn(Cc2ccc(F)c(F)c2)c(Nc2ccc(OC(F)F)cc2C)nc1=O` [Compound I-0516] was tested, and the IC50 was 10 to 100 nM. In the case of `COc1c(C)ccc(Nc2nc(=O)c(OC)cn2Cc2ccc(F)c(F)c2)c1C` [Compound I-0517], the IC50 is reported as under 10 nM. In the case of `COc1cn(Cc2ccc(F)c(F)c2)c(Nc2cc(Cl)c(Cl)cc2C)nc1=O` [Compound I-0518], the IC50 is reported as 10 to 100 nM. `COc1cn(Cc2ccc(F)c(F)c2)c(Nc2ccc(N3CCOCC3)cc2C)nc1=O` [Compound I-0519] showed an IC50 of 10 to 100 nM. With `COc1cn(Cc2cc(C)cc(C)c2)c(Nc2cccc(Cl)c2C)nc1=O` [Compound I-0521] the IC50 was 500 to 1000 nM. In the case of `COc1cn(Cc2ccc(F)c(F)c2)c(Nc2cc(-c3nnco3)ccc2C)nc1=O` [Compound I-0523], the IC50 is reported as 10 to 100 nM. For `COc1cn(Cc2ccc(F)c(Cl)c2)c(Nc2cc(CN3CCCC3)ccc2C)nc1=O` [Compound I-0524], the IC50 was 100 to 500 nM. With `COc1cn(Cc2ccccc2)c(Nc2cc(-n3c(C)ccc3C)ccc2C)nc1=O` [Compound I-0525] the IC50 was 100 to 500 nM. `COc1cn(Cc2ccc(F)c(Cl)c2)c(Nc2cc(-n3c(C)ccc3C)ccc2C)nc1=O` [Compound I-0526] gave an IC50 of 10 to 100 nM. For `COc1cn(Cc2ccccc2)c(Nc2cccc3[nH]c(-c4ccccc4)cc23)nc1=O` [Compound I-0527], the IC50 was 500 to 1000 nM. Compound `COc1cn(Cc2cc(F)cc(Cl)c2)c(Nc2cc(C)c(OC(F)F)cc2C)nc1=O` [Compound I-0529] has an IC50 of 10 to 100 nM. Compound `COc1cn(Cc2ccc(F)c(F)c2)c(Nc2ccc(OC(C)C)cc2C)nc1=O` [Compound I-0530] has an IC50 of 10 to 100 nM. `COc1cn(Cc2cc(F)cc(F)c2)c(Nc2ccc(OC(C)C)cc2C)nc1=O` [Compound I-0531] showed an IC50 of 10 to 100 nM. In the case of `COc1cn(Cc2ccc(F)c(Cl)c2)c(Nc2ccc(OC(C)C)cc2C)nc1=O` [Compound I-0532], the IC50 is reported as 10 to 100 nM. `COc1cc(Nc2nc(=O)c(F)cn2Cc2ccc(F)c(Cl)c2)c(C)cc1Cl` [Compound I-0533] showed an IC50 of under 10 nM. With `COc1cc(Nc2nc(=O)c(OC)cn2Cc2cccc(Cl)c2)c(C)cc1Cl` [Compound I-0534] the IC50 was under 10 nM. For `COc1cc(Nc2nc(=O)c(OC)cn2Cc2ccc(F)c(F)c2)c(C)cc1Cl` [Compound I-0535], the IC50 was under 10 nM. In the case of `COc1cc(Nc2nc(=O)c(OC)cn2Cc2ccc(F)c(Cl)c2)c(C)cc1Cl` [Compound I-0536], the IC50 is reported as under 10 nM. `COc1cc(Nc2nc(=O)c(OC)cn2Cc2cc(F)cc(Cl)c2)c(C)cc1Cl` [Compound I-0537] was tested, and the IC50 was under 10 nM. In the case of `COc1ccc(Nc2nc(=O)c(OC)cn2Cc2cc(F)cc(F)c2)c(C)c1` [Compound I-0538], the IC50 is reported as 10 to 100 nM. Work on `COc1cn(Cc2cc(F)cc(F)c2)c(Nc2ccc(OC(F)F)cc2C)nc1=O` [Compound I-0539] yielded an IC50 of 10 to 100 nM. `COc1c(C)ccc(Nc2nc(=O)c(OC)cn2Cc2cc(F)cc(F)c2)c1C` [Compound I-0540] was tested, and the IC50 was under 10 nM. Work on `COc1cn(Cc2cc(F)cc(F)c2)c(Nc2cc(Cl)c(Cl)cc2C)nc1=O` [Compound I-0541] yielded an IC50 of 10 to 100 nM. Work on `CCc1cc(Cl)ccc1Nc1nc(=O)c(OC)cn1Cc1cc(F)cc(F)c1` [Compound I-0542] yielded an IC50 of 10 to 100 nM. `COc1cn(Cc2cc(F)cc(F)c2)c(Nc2ccc(N3CCOCC3)cc2C)nc1=O` [Compound I-0543] was tested, and the IC50 was 10 to 100 nM. `COc1ccc(Cl)c(Nc2nc(=O)c(OC)cn2Cc2ccc(F)c(Cl)c2)c1` [Compound I-0544] was tested, and the IC50 was 10 to 100 nM. `CCc1cc(Cl)ccc1Nc1nc(=O)c(OC)cn1Cc1ccc(F)c(Cl)c1` [Compound I-0545] gave an IC50 of under 10 nM. For `COc1cn(Cc2ccc(F)c(Cl)c2)c(Nc2cc(SC(F)(F)F)ccc2C)nc1=O` [Compound I-0546], the IC50 was 10 to 100 nM. `COc1cn(Cc2ccc(F)c(Cl)c2)c(Nc2cc(S(C)(=O)=O)ccc2C)nc1=O` [Compound I-0547] was tested, and the IC50 was 10 to 100 nM. `COc1cn(Cc2ccc(F)c(Cl)c2)c(Nc2ccc(N3CCOCC3)cc2C)nc1=O` [Compound I-0548] gave an IC50 of 10 to 100 nM. For `COc1cn(Cc2ccc(F)c(Cl)c2)c(Nc2cc(-c3ncco3)ccc2C)nc1=O` [Compound I-0549], the IC50 was under 10 nM. For `COc1cn(Cc2cc(F)cc(F)c2)c(Nc2cc(S(C)(=O)=O)c(C)cc2C)nc1=O` [Compound I-0551], the IC50 was 10 to 100 nM. `COc1cn(Cc2cc(F)cc(F)c2)c(Nc2cc(N3CCCS3(=O)=O)ccc2C)nc1=O` [Compound I-0552] showed an IC50 of 10 to 100 nM. `COc1cn(Cc2cc(F)cc(F)c2)c(Nc2cc3sc(C)nc3cc2C)nc1=O` [Compound I-0553] was tested, and the IC50 was 10 to 100 nM. `COc1cn(Cc2cc(F)cc(F)c2)c(Nc2cc(-c3ncco3)ccc2C)nc1=O` [Compound I-0554] was tested, and the IC50 was 10 to 100 nM. Work on `COc1cn(Cc2ccc(F)c(F)c2)c(Nc2cc(OC(C)C)ccc2C)nc1=O` [Compound I-0555] yielded an IC50 of 10 to 100 nM. `COc1cn(Cc2cc(F)cc(F)c2)c(Nc2cc(OC(C)C)ccc2C)nc1=O` [Compound I-0556] showed an IC50 of 10 to 100 nM. `COc1cn(Cc2cc(F)cc(Cl)c2)c(Nc2cc(OC(C)C)ccc2C)nc1=O` [Compound I-0557] was tested, and the IC50 was 10 to 100 nM. `COc1cn(Cc2ccccc2)c(Nc2cc(-c3ncco3)ccc2C)nc1=O` [Compound I-0558] showed an IC50 of 10 to 100 nM. Work on `COc1cn(Cc2cccc(F)c2)c(Nc2cc3sc(C)nc3cc2C)nc1=O` [Compound I-0559] yielded an IC50 of 10 to 100 nM. With `COc1cc(C)cc(Nc2nc(=O)c(OC)cn2Cc2ccc(F)cc2)c1C` [Compound I-0560] the IC50 was under 10 nM. `COc1cn(Cc2cccc(Cl)c2)c(Nc2cc3sc(C)nc3cc2C)nc1=O` [Compound I-0562] showed an IC50 of 10 to 100 nM. Compound `COc1cn(Cc2cc(F)cc(F)c2)c(Nc2ccc(Cl)cc2C)nc1=O` [Compound I-0563] has an IC50 of 10 to 100 nM. In the case of `COc1cn(Cc2ccc(F)c(Cl)c2)c(Nc2ccc(Cl)cc2C)nc1=O` [Compound I-0564], the IC50 is reported as 10 to 100 nM. Compound `CCc1ccc(F)cc1Nc1nc(=O)c(OC)cn1Cc1ccc(F)cc1` [Compound I-0565] has an IC50 of 100 to 500 nM. In the case of `CCc1ccc(F)cc1Nc1nc(=O)c(OC)cn1Cc1cccc(Cl)c1` [Compound I-0566], the IC50 is reported as 10 to 100 nM. `CCc1ccc(F)cc1Nc1nc(=O)c(OC)cn1Cc1ccc(F)c(Cl)c1` [Compound I-0567] showed an IC50 of 10 to 100 nM.
